Converted amounts (≈) assume the structure as drawn. One block for each molecule: values may come before it.
Tests used:
[1] = Remote loading of doxorubicin and 17-DMAG into ammonium sulfate liposomes with and without 25% DMSO; format: physicochemical; conditions: ammonium sulfate containing liposomes
Source text: To test the integrity of the liposomes in 25% DMSO we attempted to remote load the water-soluble weak base drugs doxorubicin and 17-dimethylaminoethylamino-17-demethoxygeldanamycin (17-DMAG) and compared to the same loading without DMSO.

[2] = cited from earlier work
[3] = Water solubility; format: physicochemical
[4] = Remote loading of aripiprazole precipitate into liposomes; format: physicochemical
Procedure: Liposomes (HSPC/Chol/PEG-DSPE 3/2/0.15 mol/mol/mol) containing 250 mM ammonium sulfate or 250 mM sodium sulfate were diluted in 1 mL of 50 mM citric acid, 10% (wt/wt) sucrose, pH 4.0 to a concentration of 6 mM phospholipid. […] Fine precipitates were immediately observed after the drug was added to both liposome samples. The samples were heated at 65° C. for 30 min, the cooled on ice. The samples were filtered through a 0.2 um polyethersulfone syringe filter to remove any drug precipitates, followed by purification on a Sephadex G25 column equilibrated with HBS, pH 6.5 to remove any soluble extraliposome drug. The turbid fraction was collected and analyzed for lipid and drug as described above.

- % Efficiency compared to control of no DMSO [1]: 92.7 ± 0.43%
SMILES: COc1cccc2c1C(=O)c1c(O)c3c(c(O)c1C2=O)C[C@@](O)(C(=O)CO)C[C@@H]3O[C@H]1C[C@H](N)[C@H](O)[C@H](C)O1 [doxorubicin]

SMILES: O=C(O)c1ccc(-n2nc(-c3ccccc3O)nc2-c2ccccc2O)cc1 [deferasirox]
- water solubility [2]: ~0.038 mg/mL (≈ 102 µM)

SMILES: CO[C@H]1/C=C\C=C(/C)C(=O)NC2=CC(=O)C(NCCN(C)C)=C(C[C@@H](C)C[C@H](OC)[C@H](O)[C@@H](C)/C=C(\C)[C@@H]1OC(N)=O)C2=O [Formulation 17-DMAG, 17-dimethylaminoethylamino-17-demethoxygeldanamycin]
- % Efficiency compared to control of no DMSO [1]: 73.1 ± 1.4%

- solubility in water [3]: very insoluble in water
- Output D/L ([4]; (NH4)2SO4 liposomes, input D/L 50 ug/umol): 42.28 ± 0.49 µg/µmol
- Output D/L ([4]; (Na)2SO4 liposomes, input D/L 50 ug/umol): 0.86 ± 0.51 µg/µmol
- loading efficiency ([4]; drug introduced as SBCD complex (from Abilify), same concentration and loading conditions): 68%
- Fold Increase NH4SO4/NaSO4 ([4]; input D/L 50 ug/umol): 49.3
SMILES: O=C1CCc2ccc(OCCCCN3CCN(c4cccc(Cl)c4Cl)CC3)cc2N1 [aripiprazole]

— US20140220110A1, “REMOTE LOADING OF SPARINGLY WATER-SOLUBLE DRUGS INTO LIPOSOMES” (ZONEONE PHARMA, INC., priority 2013, published 2014)
